Calls of active or inactive are those of the source. No cut-off for these calls is given here.
System: MCF7
Test: Induction of apoptosis in human MCF7 cells at antiproliferative IC50 assessed as late apoptotic cells after 48 hrs by AO/EB dual staining-based fluorescent microscopic analysis
Format: functional, cell-based
Conditions: not given

| SMILES | Activity |
| --- | --- |
| Cc1ccc(-c2nnc(NC(=O)c3cc4c(c5c3OC(C)(C)C=C5)OC(C)C(C)C4=O)s2)cc1 (stereo not drawn) | Active |
| CC1Oc2c(cc(C(=O)Nc3nnc(-c4ccc([N+](=O)[O-])cc4)s3)c3c2C=CC(C)(C)O3)C(=O)C1C (stereo not drawn) | Active |

System: MCF7
Test: Induction of mitochondrial membrane potential loss in human MCF7 cells assessed as accumulation of cells at upper right quadrant at 14.3 uM after 48 hrs by JC-1 staining-based fluorescent microscopic analysis (reference value: 0.2 %)
Format: functional
Conditions: not given

| SMILES | Activity |
| --- | --- |
| Cc1ccc(-c2nnc(NC(=O)c3cc4c(c5c3OC(C)(C)C=C5)OC(C)C(C)C4=O)s2)cc1 (stereo not drawn) | 86.3% |

System: MCF7
Test: Induction of apoptosis in human MCF7 cells assessed as DNA fragmentation at antiproliferative IC50 after 24 hrs by ethidium bromide staining based agarose gel electrophoresis method
Format: functional, cell-based
Conditions: not given

| SMILES | Activity |
| --- | --- |
| Cc1ccc(-c2nnc(NC(=O)c3cc4c(c5c3OC(C)(C)C=C5)OC(C)C(C)C4=O)s2)cc1 (stereo not drawn) | Active |
| CC1Oc2c(cc(C(=O)Nc3nnc(-c4ccc([N+](=O)[O-])cc4)s3)c3c2C=CC(C)(C)O3)C(=O)C1C (stereo not drawn) | Active |

System: MCF7
Test: Induction of apoptosis in human MCF7 cells assessed as chromatin condensation at antiproliferative IC50 after 24 hrs by hoechst 33258 staining-based fluorescent microscopic analysis
Format: functional, cell-based
Conditions: not given

| SMILES | Activity |
| --- | --- |
| Cc1ccc(-c2nnc(NC(=O)c3cc4c(c5c3OC(C)(C)C=C5)OC(C)C(C)C4=O)s2)cc1 (stereo not drawn) | Active |
| CC1Oc2c(cc(C(=O)Nc3nnc(-c4ccc([N+](=O)[O-])cc4)s3)c3c2C=CC(C)(C)O3)C(=O)C1C (stereo not drawn) | Active |

System: not listed separately
Test: Cytotoxicity against human MCF7 cells assessed as cell growth inhibition after 24 hrs by MTT assay
Format: functional, cell-based
Conditions: MCF7, 24 h

| SMILES | IC50 |
| --- | --- |
| Cc1ccc(-c2nnc(NC(=O)c3cc4c(c5c3OC(C)(C)C=C5)OC(C)C(C)C4=O)s2)cc1 (stereo not drawn) | 14.3 µM |
| CC1Oc2c(cc(C(=O)Nc3nnc(-c4ccc([N+](=O)[O-])cc4)s3)c3c2C=CC(C)(C)O3)C(=O)C1C (stereo not drawn) | 31.2 µM |

System: not listed separately
Test: Downregulation of Bcl2 mRNA expression in human MCF7 cells assessed as Bcl2 mRNA expression level at antiproliferative IC50 after 48 hrs by RT-qPCR analysis relative to control
Format: functional, cell-based
Conditions: not given

| SMILES | Activity |
| --- | --- |
| Cc1ccc(-c2nnc(NC(=O)c3cc4c(c5c3OC(C)(C)C=C5)OC(C)C(C)C4=O)s2)cc1 (stereo not drawn) | 39.7% |

System: MCF7
Test: Induction of apoptosis in human MCF7 cells assessed as early apoptotic cells at antiproliferative IC50 after 24 hrs by AO/EB dual staining-based fluorescent microscopic analysis
Format: functional, cell-based
Conditions: not given

| SMILES | Activity |
| --- | --- |
| Cc1ccc(-c2nnc(NC(=O)c3cc4c(c5c3OC(C)(C)C=C5)OC(C)C(C)C4=O)s2)cc1 (stereo not drawn) | Active |
| CC1Oc2c(cc(C(=O)Nc3nnc(-c4ccc([N+](=O)[O-])cc4)s3)c3c2C=CC(C)(C)O3)C(=O)C1C (stereo not drawn) | Active |

System: MCF7
Test: Induction of apoptosis in human MCF7 cells assessed as increase in number of abnormal cells at antiproliferative IC50 by hoechst 33258 staining-based fluorescent microscopic analysis
Format: functional, cell-based
Conditions: TDE = time-dependent effect

| SMILES | Activity |
| --- | --- |
| Cc1ccc(-c2nnc(NC(=O)c3cc4c(c5c3OC(C)(C)C=C5)OC(C)C(C)C4=O)s2)cc1 (stereo not drawn) | Tde |
| CC1Oc2c(cc(C(=O)Nc3nnc(-c4ccc([N+](=O)[O-])cc4)s3)c3c2C=CC(C)(C)O3)C(=O)C1C (stereo not drawn) | Tde |

System: not listed separately
Test: Downregulation of Bcl2 protein expression in human MCF7 cells at antiproliferative IC50 after 24 hrs by Western blot analysis
Format: functional, cell-based
Conditions: not given

| SMILES | Activity |
| --- | --- |
| Cc1ccc(-c2nnc(NC(=O)c3cc4c(c5c3OC(C)(C)C=C5)OC(C)C(C)C4=O)s2)cc1 (stereo not drawn) | Active |
| CC1Oc2c(cc(C(=O)Nc3nnc(-c4ccc([N+](=O)[O-])cc4)s3)c3c2C=CC(C)(C)O3)C(=O)C1C (stereo not drawn) | Active |

System: not listed separately
Test: Cytotoxicity against human HeLa cells assessed as cell growth inhibition after 24 hrs by MTT assay
Format: functional, cell-based
Conditions: not given

| SMILES | IC50 |
| --- | --- |
| Cc1ccc(-c2nnc(NC(=O)c3cc4c(c5c3OC(C)(C)C=C5)OC(C)C(C)C4=O)s2)cc1 (stereo not drawn) | 25.2 µM |
| CC1Oc2c(cc(C(=O)Nc3nnc(-c4ccc([N+](=O)[O-])cc4)s3)c3c2C=CC(C)(C)O3)C(=O)C1C (stereo not drawn) | 42.9 µM |

System: MCF7
Test: Induction of apoptosis in human MCF7 cells assessed as cytoskeleton breakdown at antiproliferative IC50 after 48 hrs by hoechst 33258 staining-based fluorescent microscopic analysis
Format: functional, cell-based
Conditions: not given

| SMILES | Activity |
| --- | --- |
| Cc1ccc(-c2nnc(NC(=O)c3cc4c(c5c3OC(C)(C)C=C5)OC(C)C(C)C4=O)s2)cc1 (stereo not drawn) | Active |
| CC1Oc2c(cc(C(=O)Nc3nnc(-c4ccc([N+](=O)[O-])cc4)s3)c3c2C=CC(C)(C)O3)C(=O)C1C (stereo not drawn) | Active |

System: not listed separately
Test: Hemolytic activity against human RBC at 14.36 uM after 4 hrs
Format: ADME, cell-based
Conditions: erythrocyte

| SMILES | Activity |
| --- | --- |
| Cc1ccc(-c2nnc(NC(=O)c3cc4c(c5c3OC(C)(C)C=C5)OC(C)C(C)C4=O)s2)cc1 (stereo not drawn) | Non-Toxic |

System: not listed separately
Test: Downregulation of Bcl2 mRNA expression in human MCF7 cells assessed as Bcl2 mRNA expression level at antiproliferative IC50 after 12 hrs by RT-qPCR analysis relative to control
Format: functional, cell-based
Conditions: not given

| SMILES | Activity |
| --- | --- |
| Cc1ccc(-c2nnc(NC(=O)c3cc4c(c5c3OC(C)(C)C=C5)OC(C)C(C)C4=O)s2)cc1 (stereo not drawn) | 82.7% |

System: MCF7
Test: Induction of mitochondrial membrane potential depolarization in human MCF7 cells assessed as increase in green fluorescence at 14.3 uM after 24 to 48 hrs by JC-1 staining-based fluorescent microscopic analysis
Format: functional, cell-based
Conditions: not given

| SMILES | Activity |
| --- | --- |
| Cc1ccc(-c2nnc(NC(=O)c3cc4c(c5c3OC(C)(C)C=C5)OC(C)C(C)C4=O)s2)cc1 (stereo not drawn) | Active |

System: MCF7
Test: Induction of mitochondrial membrane potential loss in human MCF7 cells assessed as accumulation of cells at lower right quadrant at 14.3 uM after 48 hrs by JC-1 staining-based fluorescent microscopic analysis (reference value: 0.1 %)
Format: functional
Conditions: not given

| SMILES | Activity |
| --- | --- |
| Cc1ccc(-c2nnc(NC(=O)c3cc4c(c5c3OC(C)(C)C=C5)OC(C)C(C)C4=O)s2)cc1 (stereo not drawn) | 13.7% |

System: not listed separately
Test: Downregulation of Bcl2 mRNA expression in human MCF7 cells assessed as Bcl2 mRNA expression level at antiproliferative IC50 after 24 hrs by RT-qPCR analysis relative to control
Format: functional, cell-based
Conditions: not given

| SMILES | Activity |
| --- | --- |
| Cc1ccc(-c2nnc(NC(=O)c3cc4c(c5c3OC(C)(C)C=C5)OC(C)C(C)C4=O)s2)cc1 (stereo not drawn) | 46% |

System: not listed separately
Test: Upregulation of Bax protein expression in human MCF7 cells at antiproliferative IC50 after 24 hrs by Western blot analysis
Format: functional, cell-based
Conditions: not given

| SMILES | Activity |
| --- | --- |
| Cc1ccc(-c2nnc(NC(=O)c3cc4c(c5c3OC(C)(C)C=C5)OC(C)C(C)C4=O)s2)cc1 (stereo not drawn) | Active |
| CC1Oc2c(cc(C(=O)Nc3nnc(-c4ccc([N+](=O)[O-])cc4)s3)c3c2C=CC(C)(C)O3)C(=O)C1C (stereo not drawn) | Active |

System: MCF7
Test: Induction of apoptosis in human MCF7 cells assessed as morphological changes at antiproliferative IC50 by AO/EB dual staining-based fluorescent microscopic analysis
Format: functional, cell-based
Conditions: TDE = time-dependent effect

| SMILES | Activity |
| --- | --- |
| Cc1ccc(-c2nnc(NC(=O)c3cc4c(c5c3OC(C)(C)C=C5)OC(C)C(C)C4=O)s2)cc1 (stereo not drawn) | Tde |
| CC1Oc2c(cc(C(=O)Nc3nnc(-c4ccc([N+](=O)[O-])cc4)s3)c3c2C=CC(C)(C)O3)C(=O)C1C (stereo not drawn) | Tde |

System: MCF7
Test: Induction of apoptosis in human MCF7 cells assessed as fragmented nuclei at antiproliferative IC50 after 24 hrs by hoechst 33258 staining-based fluorescent microscopic analysis
Format: functional, cell-based
Conditions: not given

| SMILES | Activity |
| --- | --- |
| Cc1ccc(-c2nnc(NC(=O)c3cc4c(c5c3OC(C)(C)C=C5)OC(C)C(C)C4=O)s2)cc1 (stereo not drawn) | Active |
| CC1Oc2c(cc(C(=O)Nc3nnc(-c4ccc([N+](=O)[O-])cc4)s3)c3c2C=CC(C)(C)O3)C(=O)C1C (stereo not drawn) | Active |

System: MCF7
Test: Induction of apoptosis in human MCF7 cells assessed as presence of apoptotic bodies at antiproliferative IC50 after 24 hrs by hoechst 33258 staining-based fluorescent microscopic analysis
Format: functional, cell-based
Conditions: not given

| SMILES | Activity |
| --- | --- |
| Cc1ccc(-c2nnc(NC(=O)c3cc4c(c5c3OC(C)(C)C=C5)OC(C)C(C)C4=O)s2)cc1 (stereo not drawn) | Active |
| CC1Oc2c(cc(C(=O)Nc3nnc(-c4ccc([N+](=O)[O-])cc4)s3)c3c2C=CC(C)(C)O3)C(=O)C1C (stereo not drawn) | Active |

System: MCF7
Test: Induction of apoptosis in human MCF7 cells assessed as plasma membrane blebbing at antiproliferative IC50 after 48 hrs by hoechst 33258 staining-based fluorescent microscopic analysis
Format: functional, cell-based
Conditions: not given

| SMILES | Activity |
| --- | --- |
| Cc1ccc(-c2nnc(NC(=O)c3cc4c(c5c3OC(C)(C)C=C5)OC(C)C(C)C4=O)s2)cc1 (stereo not drawn) | Active |
| CC1Oc2c(cc(C(=O)Nc3nnc(-c4ccc([N+](=O)[O-])cc4)s3)c3c2C=CC(C)(C)O3)C(=O)C1C (stereo not drawn) | Active |

System: not listed separately
Test: Hemolytic activity against human RBC at 31.2 uM after 4 hrs
Format: ADME, cell-based
Conditions: erythrocyte

| SMILES | Activity |
| --- | --- |
| CC1Oc2c(cc(C(=O)Nc3nnc(-c4ccc([N+](=O)[O-])cc4)s3)c3c2C=CC(C)(C)O3)C(=O)C1C (stereo not drawn) | Non-Toxic |

System: not listed separately
Test: Cytotoxicity against human A549 cells assessed as cell growth inhibition after 24 hrs by MTT assay
Format: functional, cell-based
Conditions: A549, 24 h

| SMILES | IC50 |
| --- | --- |
| Cc1ccc(-c2nnc(NC(=O)c3cc4c(c5c3OC(C)(C)C=C5)OC(C)C(C)C4=O)s2)cc1 (stereo not drawn) | 20.2 µM |
| CC1Oc2c(cc(C(=O)Nc3nnc(-c4ccc([N+](=O)[O-])cc4)s3)c3c2C=CC(C)(C)O3)C(=O)C1C (stereo not drawn) | 42.3 µM |

Source: ChEMBL document CHEMBL3865802, “Natural product-inspired rational design, synthesis and biological evaluation of 2,3-dihydropyrano[2,3-f]chromen-4(8H)-one based hybrids as potential mitochondrial apoptosis inducers” (Eur J Med Chem, 2016)
